Laboratory results as given in PubChem BioAssay AID624384 (Sanford-Burnham Center for Chemical Genomics, 2012).
Active and inactive are the calls of the source. How the calls were made is not given here.

Molecular target: Small ubiquitin-related modifier 2 (Homo sapiens) (UniProt P61956)
Assay: SUMO2 binding disruption by SUMO1 hits – biochemical, FRET, human SUMO2, uHTS hits, selectivity assay for SUMO1 interaction inhibitor project, dose response (AID 624384)
Settings: SUMO2 FRET protein-protein interaction selectivity assay

Sequence of Small ubiquitin-related modifier 2 (Homo sapiens) (P61956 whole entry, looked up): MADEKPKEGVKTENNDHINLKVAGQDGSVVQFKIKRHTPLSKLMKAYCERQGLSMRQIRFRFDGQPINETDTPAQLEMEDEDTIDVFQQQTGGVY

IC50: > 66 µM (inactive)
Structure (SMILES): C[c-]1[c-](C)[c-](C)[c-](C)[c-]1C.[Fe].c1cc2nccc(N3CCCC3)[c-]2c1 (stereo unspecified)
